# Laboratory results taken from ChEMBL document CHEMBL1141441, “Crystallographic investigation of the inhibition mode of a VIM-2 metallo-beta-lactamase from Pseudomonas aeruginosa by a mercaptocarboxylate inhibitor” (J Med Chem, 2007).
# Test: Inhibition of IMP1 expressed in Escherichia coli BL21 (DE3)
smiles,measurement,value
O=C(O)C(CS)CCCc1ccccc1 (racemic),Ki,1660 nM
